Assay results: patent US12582647B2, “Systems and methods for treating an opioid-induced adverse pharmacodynamic response” (Purdue Pharma L.P., priority 2012, dated 2026)

Legend:
rat gastric emptying = assay: Stomach weight after charcoal meal (gastric emptying); format: in vivo, male Sprague-Dawley rats; details: morphine sulfate 1-10 mg/kg SC 0.5 h before charcoal meal, vs vehicle; FIG. 1B
Protocol: Morphine sulfate (1-10 mg/kg) or 0.9% normal saline (vehicle) was administered SC to the test subjects. 0.5 hour later, a charcoal meal (1 ml/100 grams) was administered PO to the test subjects. One hour after the charcoal meal, the test subjects were euthanized by CO2 and the stomachs were removed and weighed. Data were analyzed using a one-way ANOVA followed by the Dunnett's Multiple Comparisons test where *P<0.05, **P<0.01 and ***P<0.001. […] This effect was dose dependent with a greater magnitude of effect observed with increasing dose.

[1] = test system: acute thermal pain in the rat; assay: Rat hot plate assay (response latency, % MPE)
Protocol: Morphine sulphate (1-10 mg/kg) was dissolved in 0.9% normal saline solution (NSS)(vehicle) and administered SC 1 hour prior to testing against vehicle. Data were analyzed by a two-way ANOVA using a Bonferroni Multiple Comparison Test,***P<0.001.
Morphine sulphate (1-10 mg/kg) was dissolved in 0.9% normal saline solution (NSS)(vehicle) and administered SC 1 hour prior to testing against vehicle. % MPE=Percent Maximum Possible Effect. % MPE=(test latency-baseline)/(cutoff-baseline). Data was analyzed using a Bonferroni Multiple Comparison Test,***P<0.001.
Morphine sulphate (10 mg/kg), the positive control, was dissolved in 0.9% NSS (vehicle). The formulations were administered SC 1 hour prior to testing against vehicle. Data were analyzed by a two-way ANOVA using a Bonferroni multiple comparisons test, where *P<0.05 and ***P <0.001. Data are represented as the means+S.E.M.
Morphine sulphate (10 mg/kg) was dissolved in 0.9% NSS (vehicle). The formulations were administered SC 1 hour prior to testing against vehicle. % MPE=Percent Maximum Possible Effect. % MPE=(test latency-baseline)/(cutoff (30 s)-baseline). Data were analyzed by a two-way ANOVA using Bonferroni Multiple Comparisons test for post-hoc analysis, where *P<0.05 and ***P<0.001. Data are represented as the means+SEM.
The positive control, morphine sulfate in 0.9% NS, was administered SC 1 hour prior to testing. Rats were assessed one day prior (BL) and then 1, 3 and 5 hours post-dosing. Hot Plate was set to 52° C. and cutoff was 30 seconds. Data were analyzed by a two-way ANOVA using a Bonferroni Multiple Comparisons Test, where *P<0.05, ***P<0.001 and ****P<0.0001 versus vehicle. Data are represented as the means+S.E.M from two combined studies.
Oxycodone hydrochloride (0.3-5 mg/kg) was dissolved in 0.9% normal saline solution (NSS)(vehicle) and administered SC 1 hour prior to testing against vehicle. Hot plate was set to 52° C. and cutoff was 30 seconds. Data were analyzed by a two-way ANOVA using a Bonferroni multiple comparisons test, where ****P<0.0001. Data are represented as the means+S.E.M.
Compound was administered SC 1 hour prior to testing. Oxycodone hydrochloride (0.3-5 mg/kg) was dissolved in 0.9% normal saline solution (NSS)(vehicle) and administered SC 1 hour prior to testing against vehicle. Hot plate was set to 52° C. and cutoff was 30 seconds. % MPE=. Percent Maximum Possible Effect. % MPE=(test latency-baseline)/(cutoff (30 s)-baseline). Data were analyzed by a two-way ANOVA using Bonferroni Multiple Comparisons test for post-hoc analysis, ****P<0.000. Data are represented as the means+SEM.
Oxycodone HCl was administered SC 1 hour prior to testing. Thermal latency was assessed the day prior (BL) and then 1, 3 and 5 hours post-oxycodone dosing. The hotplate was set to 52° C. and the cutoff was 30 seconds. Oxycodone was dissolved in 0.9% NS (vehicle). […] Data were analyzed by a two-way ANOVA using the Bonferroni Multiple Comparisons test for post-hoc analysis where, ***P<0.001. Data are represented as the means+SEM.
Oxycodone HCl was administered PO 1 hour prior to testing, while morphine sulfate, the positive control, was administered SC 1 hour prior to testing. Behavior was assessed the day prior (BL) and then 1, 3, 5 and 24 hours post-compound administration. The hot plate was set to 52° C. and the cutoff was 30 seconds. Oxycodone was dissolved in water (vehicle), while morphine sulfate was dissolved in 0.9% NS. Data were analyzed by a two-way ANOVA using a Bonferroni Multiple Comparisons Test, where ****P<0.0001.
Rats were assessed for thermal latency the day prior to dosing, then 1.5, 3 and 5 hours post-morphine administration. Data were analyzed by a two-way ANOVA using the Bonferroni Multiple Comparisons Test, where ****P<0.0001 compared to vehicle+vehicle.

[2] = test system: acute thermal pain in the rat; assay: Rat tail flick assay (response latency, % MPE)
Protocol: Morphine sulphate (1-10 mg/kg) was dissolved in 0.9% normal saline solution (NSS)(vehicle) and administered SC 1 hour prior to testing against vehicle. Data were analyzed by a two-way ANOVA using a Bonferroni post-hoc test, *P<0.05, ***P<0.001.
Morphine sulphate (1-10 mg/kg) was dissolved in 0.9% normal saline solution (NSS)(vehicle) and administered SC 1 hour prior to testing against vehicle. % MPE=Percent of Maximum Possible Effect. % MPE=(test latency-baseline)/(cutoff(20 s)-baseline)*100. Data were analyzed by a two-way ANOVA using a Bonferroni post-hoc test, *P<0.05, **P<0.01, ***P<0.001.
Morphine sulphate (10 mg/kg) was dissolved in 0.9% NSS (vehicle). The formulations were administered SC 1 hour prior to testing against vehicle. Data were analyzed by a two-way ANOVA using a Bonferroni multiple comparisons test, *P<0.05, ***P<0.001.
Morphine sulphate (10 mg/kg) was dissolved in 0.9% NSS (vehicle). The formulations were administered SC 1 hour prior to testing against vehicle. % MPE=Percent Maximum Possible Effect. % MPE=(test latency-baseline)/(cutoff(20 s)-baseline)*100. Data were analyzed by a two-way ANOVA using a Bonferroni multiple comparisons test, ***P<0.001.
The positive control, morphine sulfate in 0.9% NS was administered SC 1 hour prior to testing. Rats were assessed the day prior (BL) and then 1, 3 and 5 hours post-dosing. Tail Flick was set to 40 intensity and cutoff 20 seconds. Data were analyzed by a two-way ANOVA using a Bonferroni Multiple Comparisons Test, where *P<0.05,***P<0.001 and ****P<0.0001. Data are represented as the means+S.E.M of two combined studies.
Oxycodone hydrochloride (0.3-5 mg/kg) was dissolved in 0.9% normal saline solution (NSS)(vehicle) and administered SC 1 hour prior to testing against vehicle. Data were analyzed by a two-way ANOVA using a Bonferroni multiple comparisons test, ****P<0.001.
Oxycodone hydrochloride (0.3-5 mg/kg) was dissolved in 0.9% normal saline solution (NSS)(vehicle) and administered SC 1 hour prior to testing against vehicle. % MPE=Percent Maximum Possible Effect. % MPE=(test latency-baseline)/(cutoff(20 s)-baseline)*100. Data were analyzed by a two-way ANOVA using a Bonferroni multiple comparisons test, ****P<0.001.
Oxycodone HCl and vehicle were administered SC 1 hour prior to testing. Rats were assessed one day prior (BL) and then 1, 3 and 5 hours post-oxycodone administration. The tail flick was set to an intensity of 40 and the cutoff was 20 seconds. Oxycodone was dissolved in 0.9% (vehicle). […] Data were analyzed by a two-way ANOVA followed by the Bonferroni Multiple Comparisons Test where, *P<0.05 and ****P<0.001.
Oxycodone HCl was administered PO 1 hour prior to testing, while morphine sulfate, the positive control, was administered SC 1 Hour prior to testing. Behavior was assessed the day prior (BL) to dosing, and then 1, 3, 5 and 24 hours post-compound administration. The tail flick was set to an intensity of 40 and 20 seconds was used as the cutoff. Oxycodone was dissolved in water (vehicle), while morphine was dissolved in 0.9% NS. Data were analyzed by a two-way ANOVA using a Bonferroni Multiple Comparisons Test, where *P<0.05, **P<0.01, ***P<0.001 and ****P<0.0001.
Rats were assessed for tail flick latency the day prior to dosing, then 1.5, 3 and 5 hours post-morphine administration. Data were analyzed by a two-way ANOVA using the Bonferroni Multiple Comparisons Test, where ****P<0.0001 compared to vehicle+vehicle. Data are represented as the means+S.E.M.
Rats were assessed for thermal latency 1.5, 3 and 5 hours post-morphine administration. % MPE=Percent Maximum Possible Effect. % MPE=(test latency-baseline)/(cutoff(20 s)-baseline)*100. Data were analyzed by a two-way ANOVA using a Bonferroni multiple comparisons test for post-hoc analysis where *P<0.05 and ****P<0.001. Data are represented as the means+SEM.
Rats were tested 1 hour after oxycodone injection.

rat GI transit = assay: Charcoal meal GI transit in the rat, single agent; details: for GI transit: % of the small intestine travelled by a charcoal meal: vs vehicle
Protocol: Rats were dosed with Oxycodone HCl/Oxy or vehicle (water) PO once daily for 5 days (chronic). Additional groups were dosed only once on day 5 (acute). […] One hour after charcoal, all rats were euthanized by CO2 and the GI tract was removed from the stomach to the cecum. The length of the small intestine and the distance (cm) to the leading edge of charcoal was recorded. Data were analyzed using a one-way ANOVA with Bonferonni's Multiple Comparison Test where * P<0.05, ****P<0.0001 vs. vehicle (chronic), ###vs. oxycodone (acute). Data are represented as the means+S.E.M.

SMILES | stomach weight (gastric emptying) (rat gastric emptying) | hot plate latency to nocifensive response ([1]; morphine sulphate 1-10 mg/kg SC 1 h prior to testing, FIG. 2A) | hot plate % of the maximal possible effect (% MPE) ([1]; morphine sulphate 1-10 mg/kg SC 1 h prior to testing, FIG. 2B) | tail flick latency to nocifensive response ([2]; morphine sulphate 1-10 mg/kg SC 1 h prior to testing, FIG. 3A) | tail flick % of the maximal possible effect (% MPE) ([2]; morphine sulphate 1-10 mg/kg SC 1 h prior to testing, FIG. 3B) | GI transit: % of the small intestine travelled by a charcoal meal (rat GI transit; morphine sulfate 1-10 mg/kg SC 0.5 h before charcoal meal, FIG. 1A) | rats found dead ([1]; oxycodone HCl 10 mg/kg SC, at the 3 hr time point) | hot plate MED (mitigates acute pain) ([1]; oxycodone HCl PO, FIG. 8D) [mg/kg] | hot plate MED (mitigates acute pain) ([1]; oxycodone HCl SC, FIG. 8C) [mg/kg] | hot plate latency to nocifensive response ([1]; oxycodone hydrochloride 0.3-5 mg/kg SC 1 h prior to testing, FIG. 8A) | hot plate % of the maximal possible effect (% MPE) ([1]; oxycodone hydrochloride 0.3-5 mg/kg SC 1 h prior to testing, FIG. 8B) | rats found dead ([2]; oxycodone HCl 10 mg/kg SC dosing group, at the 3 hr time point) | tail flick MED (mitigates acute pain) ([2]; oxycodone HCl PO, FIG. 9D) [mg/kg] | tail flick MED (mitigates acute pain) ([2]; oxycodone HCl SC, FIG. 9C) [mg/kg] | tail flick latency to nocifensive response ([2]; oxycodone hydrochloride 0.3-5 mg/kg SC 1 h prior to testing, FIG. 9A) | tail flick % of the maximal possible effect (% MPE) ([2]; oxycodone hydrochloride 0.3-5 mg/kg SC 1 h prior to testing, FIG. 9B) | tolerance to inhibition of GI transit (rat GI transit; oxycodone HCl PO once daily for 5 days (chronic) vs single dose on day 5 (acute), FIG. 7D) | GI transit: % of the small intestine travelled by a charcoal meal (rat GI transit; oxycodone hydrochloride 0.3-5 mg/kg SC 1 h before charcoal meal, FIG. 7A)
CN1CC[C@]23c4c5ccc(O)c4O[C@H]2[C@@H](O)C=C[C@H]3[C@H]1C5.O=S(=O)(O)O [morphine, morphine sulphate] | increased stomach weight due to delayed gastric emptying | provides analgesia | provides analgesia | provides analgesia | provides analgesia | decreases gastrointestinal transit | – | – | – | – | – | – | – | – | – | – | – | –
COc1ccc2c3c1O[C@H]1C(=O)CC[C@@]4(O)[C@@H](C2)N(C)CC[C@]314.Cl [oxycodone, oxycodone hydrochloride] | – | – | – | – | – | – | 4 out of 10 | 10 | 3 | provides analgesia | provides analgesia | 4 out of 10 | 10 | 3 | provides analgesia | provides analgesia | produces some tolerances to its acute effect on the inhibition of GI transit | decreases gastrointestinal transit
